Results as given in paper PMC4838342 (Nucleic Acids Research, 2015).
Ends that are not written are not given here.

What was measured:
(His)6-sNASP = test: Pulldown of MBP-H3 fusions by (His)6-sNASP (epitope mapping); type: binding, human; conditions: MBP fusions from whole cell bacterial extracts; Nickel-NTA beads; SDS-PAGE, Coomassie
Experimental: (§1) Protein was eluted in the same buffer with 250 mM imidazole, but without protease inhibitors. The (His)6 tag was cleaved overnight by TEV protease, whilst concomitantly dialysing to 100 mM sodium chloride, 20 mM Tris–HCl pH 8.0, 1 mM EDTA and 5 mM dithiothreitol. Cleaved protein was further purified by ion-exchange using a ResourceQ column (GE Healthcare) before gel filtration chromatography in 200 mM sodium chloride, 20 mM Hepes-KOH pH 7.6 and 1 mM EDTA using a 26/60 Superdex 200 column (GE Healthcare). The purified protein was concentrated and stored in aliquots at −80°C. Homologues, truncations and point mutants of sNASP were expressed and purified using the same method. MBP-H3 peptide fusions were expressed in bacteria and used as whole cell extracts (epitope mapping) or purified over a Dextrin Sepharose column (GE Healthcare) in one-step purification in 0.5 M sodium chloride, 20 mM Hepes-KOH pH 7.6, 1 mM EDTA and 5 mM dithiothreitol. Concentrated protein was dialysed against 200 mM sodium chloride, 20 mM Hepes-KOH, 1 mM EDTA and 5 mM dithiothreitol and stored in aliquots at −80°C.
Mutations were made in the MBP H3 116–135 construct using a mixture of site-direct mutagenesis and oligo ligation. Whole cell extracts were prepared from bacteria and used as inputs for the pulldown experiments with (His)6-sNASP pre-bound to Nickel-NTA beads (GE Healthcare).

sNASP [1] = test: Isothermal titration calorimetry, sNASP titrated into MBP H3 116–135; parameters: species or system human; conditions: one-site binding model
Experimental: Isotherms were analysed by the software NITPIC and SEDPHAT ([43]) and plotted using the software GUSSI.

sNASP [2] = test: Analytical gel filtration, sNASP + MBP H3 116–135; type: binding, human; conditions: Superdex S200; 20 mM Hepes-KOH pH 7.5, 200 mM NaCl
Experimental: (§2) Analytical gel filtration was carried out using a Superdex S200 10/300 Gl column (GE Healthcare) in 20 mM Hepes-KOH pH 7.5 and 200 mM sodium chloride, unless otherwise stated. 0.5 ml fractions were collected encompassing the void (7 ml) and bed (21 ml) volumes of the column. Fractions were separated by SDS-PAGE and stained with Coomassie Brilliant Blue (SERVA).

[3] = test system: sNASP homologue from Arabidopsis thaliana; test: Pulldown of MBP H3 116–135 by A. thaliana sNASP homologue; type: binding; conditions: (His)6-tagged recombinant homologue
Experimental: as §1
(§3) Mutations were made in the MBP H3 116–135 construct using a mixture of site-direct mutagenesis and oligo ligation. Whole cell extracts were prepared from bacteria and used as inputs for the pulldown experiments with (His)6-sNASP pre-bound to Nickel-NTA beads (GE Healthcare). […]

Sim3 [4] = test: Pulldown of MBP H3 116–135 by Sim3; type: binding, Schizosaccharomyces pombe; conditions: (His)6-tagged recombinant homologue
Experimental: as §1, §3

[5] = test system: sNASP homologue from Chaetomium thermophilum; test: Pulldown of MBP H3 116–135 by C. thermophilum sNASP homologue; type: binding; conditions: (His)6-tagged recombinant homologue
Experimental: as §1, §3

Hif1 = test: Pulldown of MBP H3 116–135 by Hif1; type: binding, Saccharomyces cerevisiae; conditions: (His)6-tagged recombinant homologue
Experimental: as §1, §3

Sim3 [6] = test: Gel filtration, Sim3 + MBP H3 116–135; type: binding, Schizosaccharomyces pombe; conditions: Superdex S200; 20 mM Hepes-KOH pH 7.5, 200 mM NaCl
Experimental: as §2

Hif1-GST = test: Gel filtration, Hif1-GST + MBP H3 116–135; type: binding, Saccharomyces cerevisiae; conditions: Superdex S200; 20 mM Hepes-KOH pH 7.5, 200 mM NaCl; Hif1 GST tagged
Experimental: as §2

sNASP [7] = test: Fluorescence-2-hybrid (F2H) assay at LacO array, EGFP-sNASP; type: cell-based, human; conditions: U2OS cells, LacO (256×) array, mCherry-LacI-histone constructs, live cells
Experimental: For all the F2H assays, we used human U2OS cells harbouring the stably integrated lacO (256×) array described earlier ([44]), except for mitochondrial F2H, which was carried out on U2OS cells without an integrated array. F2H assays were essentially performed as previously described in ([45],[46]) and ([44]). Image analysis was manually performed with ImageJ image analysis software. Fluorescence intensity at the LacI array was calculated as a percentage increase over the nucleoplasm. Assignment of the LacO array and nucleoplasm were done manually. Twenty cells were counted for statistical analysis so as not to inflate the calculated P-value. Only cells in which a clearly discernable array was present were counted. For the mitochondrial F2H, the first 70 residues of the outer mitochondrial membrane protein TOM70 were cloned onto the N-terminus of mCherry. Full length H3 or H3 residues 116–135 was then cloned onto the C-terminus of mCherry to create a TOM70-mCherry-Histone triple fusion. Deleting residues 378–383 using standard site-directed mutagenesis techniques disrupted the nuclear localization sequence (NLS) of mEGFP-sNASP, resulting in its cytoplasmic expression.

For “125–135: H3 fragment fused to MBP (QLARRIRGERA; also: fused to MBP; UniProt P68431 126-136, looked up, fragment)”, the “pulldown by (His)6-sNASP” value ((His)6-sNASP) was “pulled down efficiently”.
In the case of “CENPA: homologous region of the CENPA variant of H3 from human (VTLFPKDVQLARRIRGLEE; UniProt P49450 119-137, looked up, fragment)”, the “pulldown by (His)6-sNASP” value ((His)6-sNASP) is reported as “able to pull down”.
For “MBP H3 116–135: C-terminal 20 residues of H3 fused to MBP”, the stoichiometry in words (sNASP [1]; partial degradation likely caused underestimated ratios) was “close to 1:1 stoichiometry”, the Kd (sNASP [1]; range of n = 3 with varying cell and titrant concentrations, read-out: dissociation constant) was 0.047 to 0.068 µM and the “pulldown by (His)6-sNASP” value ((His)6-sNASP) was “pulled down to near stoichiometric amounts”. The “complex formation by gel filtration” value (sNASP [2]) was “form a stable complex”, the “pulldown by A. thaliana homologue” value [3] was “pulled down stoichiometric amounts” and the “pulldown by S. pombe homologue (Sim3)” value (Sim3 [4]) was “pulled down stoichiometric amounts”. For the same substance, the “pulldown by C. thermophilum homologue” value [5] was “pulled down stoichiometric amounts”, the “pulldown by S. cerevisiae homologue (Hif1)” value (Hif1) was “no pull down was observed” and the “complex formation with Sim3 by gel filtration” value (Sim3 [6]) was “coeluted”. The “complex formation with Hif1-GST by gel filtration” value (Hif1-GST) was “eluted in separate fractions”.
In the case of “last 20 residues of H3: short region encompassing the last 20 residues of H3”, the “interaction with sNASP in F2H assay” value (sNASP [7]) is reported as “sufficient for binding”.
